Assay results published in ChEMBL document CHEMBL5137024, “Discovery of novel coumarin-indole derivatives as tubulin polymerization inhibitors with potent anti-gastric cancer activities” (Eur J Med Chem, 2022).
Calls of active or inactive are those of the source. The rule behind the calls is not given here.

Columns and labels:
HGC-27 [1] = assay: Downregulation of ATF4 expression in human HGC-27 cells incubated for 48 hrs; assay type: functional, cell-based; settings: dose 10-30 nM, DDE = dose-dependent effect
HGC-27 [2] = assay: Induction of apoptosis in human HGC-27 cells assessed as decrease in Mcl-1 level; assay type: functional, cell-based; settings: dose 10-30 nM, DDE = dose-dependent effect
HGC-27 [3] = assay: Antiproliferative activity against human HGC-27 cells assessed as reduction in cell viability incubated for 48 hrs by MTT assay; assay type: functional, cell-based; settings: HGC-27, 48 h
MGC-803 [4] = assay: Antiproliferative activity against human MGC-803 cells assessed as reduction in cell viability incubated for 48 hrs by MTT assay; assay type: functional, cell-based
[5] = Induction of mitochondria mediated intrinsic apoptosis in human MGC-803 cells assessed as early apoptotic cells at 5 nM measured after 48 hrs by flow cytometry analysis (Rvb= 1.6%); assay type: functional
HGC-27 [6] = assay: Downregulation of c-Myc expression in human HGC-27 cells incubated for 48 hrs; assay type: functional, cell-based; settings: dose 10-30 nM, DDE = dose-dependent effect
MGC-803 [7] = assay: Downregulation of Wee1 expression in human MGC-803 cells at 5 to 15 nM incubated for 48 hrs; assay type: functional, cell-based; settings: dose 5-15 nM
MGC-803 [8] = assay: Inhibition of cell migration in human MGC-803 cells assessed as reduction in wound healing rate at 5 to 15 nM incubated for 24 hrs; assay type: functional, cell-based; settings: dose 5-15 nM
MGC-803 [9] = assay: Inhibition of ERK signalling pathway in human MGC-803 cells assessed as downregulation of ERK1/2 phosphorylation at 5 to 15 nM incubated for 48 hrs; assay type: cell-based; settings: dose 5-15 nM
HGC-27 [10] = assay: Induction of apoptosis in human HGC-27 cells assessed as nuclear fragmentation at 10 to 30 nM incubated for 48 hrs by DAPI staining based analysis; assay type: functional, cell-based; settings: dose 10-30 nM
Tubulin (Homo sapiens) = Tubulin (Homo sapiens) (UniProt P68371+Q9H4B7+P0DPH7+P68366+Q13509+Q71U36+P04350+Q3ZCM7+P07437+P68363+Q9BQE3+Q6PEY2+Q13885+Q9BVA1+Q9BUF5); assay: Disruption of microtubule network in human MGC-803 cells assessed as incomplete mitosis at 5 to 15 nM measured after 48 hrs by DAPI staining based fluorescence microscopic analysis; assay type: cell-based; settings: dose 5-15 nM
MGC-803 [11] = assay: Downregulation of phosphorylated ATF-2 expression in human MGC-803 cells incubated for 48 hrs; assay type: functional, cell-based; settings: dose 5-15 nM, DDE = dose-dependent effect
HGC-27 [12] = assay: Downregulation of phosphorylated Elk-1 expression in human HGC-27 cells incubated for 48 hrs; assay type: functional, cell-based; settings: dose 10-30 nM, DDE = dose-dependent effect
Mus musculus [13] = assay: Downregulation of ERK1/2 phosphorylation in tumor tissue of BALB/c nude mouse xenografted with human MGC-803 cells at 15 to 30 mg/kg, ip administered once daily for 21 days by Western blotting analysis; assay type: functional, organism-based; settings: dose 15-30 mg/kg, time 21.0 day
[14] = target: Tubulin beta (Homo sapiens) (UniProt P68371+Q9H4B7+Q13509+P04350+Q3ZCM7+P07437+Q13885+Q9BVA1+Q9BUF5+A6NNZ2); assay: Binding affinity to beta-tubulin colchicine binding site in human MGC-803 cells assessed as decrease in beta-tubulin adduct band incubated for 2 hrs by EBI alkylate competition assay; assay type: cell-based; settings: dose 0.075-0.75 µM, DDE = dose-dependent effect
HGC-27 [15] = assay: Antiproliferative activity against human HGC-27 cells assessed as reduction in cell viability at 15 to 30 nM by MTT assay; assay type: functional, cell-based; settings: dose 15-30 nM, time 12-48 hrs, TDE = time-dependent effect
HGC-27 [16] = assay: Downregulation of cyclin B1 expression in human HGC-27 cells at 10 to 30 nM incubated for 48 hrs; assay type: functional, cell-based; settings: dose 10-30 nM
[17] = Toxicity in BALB/c nude mouse xenografted with human MGC-803 cells assessed as pathological changes in heart at 15 to 30 mg/kg, ip administered once daily for 21 days by Hematoxyin-eosin staining based analysis; assay type: organism-based; settings: in vivo, 504 h, dose 15-30 mg/kg, time 21 day
Mus musculus [18] = assay: Downregulation of p38 phosphorylation in tumor tissue of BALB/c nude mouse xenografted with human MGC-803 cells at 15 to 30 mg/kg, ip administered once daily for 21 days by Western blotting analysis; assay type: functional, organism-based; settings: dose 15-30 mg/kg, time 21.0 day
MGC-803 [19] = assay: Induction of apoptosis in human MGC-803 cells assessed as increase in dead cells at 5 to 15 nM incubated for 48 hrs by calcein-AM dye/propidium iodide staining based analysis; assay type: functional, cell-based; settings: dose 5-15 nM
[20] = Toxicity in BALB/c nude mouse xenografted with human MGC-803 cells assessed as pathological changes in spleen at 15 to 30 mg/kg, ip administered once daily for 21 days by Hematoxyin-eosin staining based analysis; assay type: organism-based; settings: in vivo, 504 h, dose 15-30 mg/kg, time 21 day
Tubulin (Sus scrofa) = Tubulin (Sus scrofa) (UniProt P02554+P02550); assay: Inhibition of porcine brain tubulin polymerization assessed as reduction in tubulin polymerization level by measuring relative fluorescence intensity at 3 umol/l by fluorescence based assay; assay type: tissue-based; settings: dose 3.0 µmol/L
MGC-803 [21] = assay: Induction of apoptosis in human MGC-803 cells assessed as decrease in Mcl-1 level; assay type: functional, cell-based; settings: dose 5-15 nM, DDE = dose-dependent effect
MGC-803 [22] = assay: Induction of apoptosis in human MGC-803 cells assessed as increase in cleavage substrate PARP level; assay type: functional, cell-based; settings: dose 5-15 nM, DDE = dose-dependent effect
HGC-27 [23] = assay: Induction of apoptosis in human HGC-27 cells assessed as increase in Noxa level; assay type: functional, cell-based; settings: dose 10-30 nM, DDE = dose-dependent effect
[24] = Induction of mitochondria mediated intrinsic apoptosis in human MGC-803 cells assessed as late apoptotic cells at 15 nM measured after 48 hrs by flow cytometry analysis (Rvb= 98.2%); assay type: functional
MGC-803 [25] = assay: Induction of apoptosis in human MGC-803 cells assessed as increase in cleavage caspase 7 level; assay type: functional, cell-based; settings: dose 5-15 nM, DDE = dose-dependent effect
MGC-803 [26] = assay: Inhibition of ERK signalling pathway in human MGC-803 cells assessed as downregulation of MEK1/2 phosphorylation at 5 to 15 nM incubated for 48 hrs; assay type: cell-based; settings: dose 5-15 nM
MGC-803 [27] = assay: Induction of DNA damage in human MGC-803 cells by comet assay; assay type: functional, cell-based; settings: dose 5-15 nM, DDE = dose-dependent effect
[28] = Induction of mitochondria mediated intrinsic apoptosis in human MGC-803 cells assessed as late apoptotic cells at 10 nM measured after 48 hrs by flow cytometry analysis (Rvb= 98.2%); assay type: functional
Mus musculus [29] = assay: Downregulation of Ki67 expression in tumor tissue of BALB/c nude mouse xenografted with human MGC-803 cells at 15 to 30 mg/kg, ip administered once daily for 21 days by immunohistochemistry analysis; assay type: functional, organism-based; settings: dose 15-30 mg/kg, time 21.0 day
TE-1 = assay: Antiproliferative activity against human TE-1 cells assessed as reduction in cell viability incubated for 48 hrs by MTT assay; assay type: functional, cell-based; settings: TE-1, 48 h
HGC-27 [30] = assay: Induction of apoptosis in human HGC-27 cells assessed as decrease in XIAP level; assay type: functional, cell-based; settings: dose 10-30 nM, DDE = dose-dependent effect
MGC-803 [31] = assay: Downregulation of FoxO3a expression in human MGC-803 cells incubated for 48 hrs; assay type: functional, cell-based; settings: dose 5-15 nM, DDE = dose-dependent effect
HGC-27 [32] = assay: Induction of apoptosis in human HGC-27 cells assessed as cell rounding at 10 to 30 nM incubated for 48 hrs by bright field imaging analysis; assay type: functional, cell-based; settings: dose 10-30 nM
MGC-803 [33] = assay: Induction of apoptosis in human MGC-803 cells assessed as decrease in cIAP-1 level; assay type: functional, cell-based; settings: dose 5-15 nM, DDE = dose-dependent effect
HGC-27 [34] = assay: Induction of apoptosis in human HGC-27 cells assessed as decrease in Bcl-2 level; assay type: functional, cell-based; settings: dose 10-30 nM, DDE = dose-dependent effect

Tubulin (Sus scrofa), sequence (P02550 whole entry, looked up): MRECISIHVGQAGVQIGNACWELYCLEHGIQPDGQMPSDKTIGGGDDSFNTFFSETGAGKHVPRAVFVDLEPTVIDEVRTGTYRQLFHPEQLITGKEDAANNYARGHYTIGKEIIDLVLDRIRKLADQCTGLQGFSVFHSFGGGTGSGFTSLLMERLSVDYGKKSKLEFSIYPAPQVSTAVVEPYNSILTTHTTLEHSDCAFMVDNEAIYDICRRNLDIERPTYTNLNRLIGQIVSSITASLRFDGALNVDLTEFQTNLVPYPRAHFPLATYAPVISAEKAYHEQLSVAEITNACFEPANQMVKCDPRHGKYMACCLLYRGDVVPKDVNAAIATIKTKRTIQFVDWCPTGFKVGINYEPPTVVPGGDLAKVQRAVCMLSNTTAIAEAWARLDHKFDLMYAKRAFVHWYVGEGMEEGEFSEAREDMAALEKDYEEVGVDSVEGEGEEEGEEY
Tubulin (Sus scrofa), sequence (P02554 whole entry, looked up): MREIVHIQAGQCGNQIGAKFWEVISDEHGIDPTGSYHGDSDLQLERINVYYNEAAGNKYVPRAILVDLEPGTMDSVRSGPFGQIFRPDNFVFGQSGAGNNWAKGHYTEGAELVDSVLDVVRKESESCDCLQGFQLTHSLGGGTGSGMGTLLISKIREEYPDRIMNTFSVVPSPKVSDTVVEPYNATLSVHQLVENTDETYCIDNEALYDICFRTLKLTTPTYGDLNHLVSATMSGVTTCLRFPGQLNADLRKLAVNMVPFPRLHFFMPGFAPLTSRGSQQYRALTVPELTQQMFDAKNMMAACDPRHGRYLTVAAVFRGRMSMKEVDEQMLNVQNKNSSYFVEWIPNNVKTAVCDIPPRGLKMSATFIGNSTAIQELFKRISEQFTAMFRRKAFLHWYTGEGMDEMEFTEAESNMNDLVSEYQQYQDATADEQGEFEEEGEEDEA

## CN(c1ccc2c(ccn2C)c1)c1cc(=O)oc2ccccc12
HGC-27 [1]
  Activity: Dde
HGC-27 [2]
  Activity: Dde
HGC-27 [3]
  IC50: 23.8 nM
MGC-803 [4]; Homo sapiens, MGC-803, 48 h
  IC50: 11 nM
MGC-803 [4]; mgc-803
  IC50: 11.5 nM
[5]
  Activity: 1.8%
HGC-27 [6]
  Activity: Dde
MGC-803 [7]
  Activity: Active
MGC-803 [8]
  inhibition: Active
MGC-803 [9]
  inhibition: Active
HGC-27 [10]
  Activity: Active
Tubulin (Homo sapiens)
  Activity: Active
MGC-803 [11]
  Activity: Dde
HGC-27 [12]
  Activity: Dde
Mus musculus [13]
  Activity: Active
[14]
  Activity: Dde
HGC-27 [15]
  Activity: Tde
HGC-27 [16]
  Activity: Active
[17]
  Activity: Non-Toxic
Mus musculus [18]
  Activity: Active
MGC-803 [19]
  Activity: Active
[20]
  Activity: Non-Toxic
Tubulin (Sus scrofa)
  inhibition: Active
MGC-803 [21]
  Activity: Dde
MGC-803 [22]
  Activity: Dde
HGC-27 [23]
  Activity: Dde
[24]
  Activity: 75.2%
MGC-803 [25]
  Activity: Dde
MGC-803 [26]
  inhibition: Active
MGC-803 [27]
  Activity: Dde
[28]
  Activity: 92.5%
Mus musculus [29]
  Activity: Active
TE-1
  IC50: 489 nM
HGC-27 [30]
  Activity: Dde
MGC-803 [31]
  Activity: Dde
HGC-27 [32]
  Activity: Active
MGC-803 [33]
  Activity: Dde
HGC-27 [34]
  Activity: Dde
